Data on two compounds can be found in patent US12433858B2, “Substituted cycloalkanes for managing nephrogenic diabetes insipidus” (NephroDI Therapeutics, Inc., priority 2017, dated 2025).

“Also recorded” adds a separate entry of the source.

For one data set, the system named is V2R knock-out NDI mice. The data set is described as follows: V2R knock-out mouse genetic model of NDI, 24-hour urine osmolality. The format is in vivo. As for the experimental part:
(§1) NDI-5033 was tested to determine an initial time course and sustainability of the anti-diuretic response. Rats were given tolvaptan to initiate NDI. They were then fed 100 mg/kg/day with NDI-5033 for 3 days (FIG. 2A). […] To ensure that the observed efficacy is not compromised by potential binding of NDI-5033 to V2R, NDI-5033 was given to mice in which the V2R was genetically knocked out yielding a genetic model of NDI (FIG. 2B). Control mice received no drug. NDI-5033 was given by injection to the mice and 24-hour urine collected and assessed for urine osmolality. NDI-5033 produced a 50% improvement in urine concentration.
(§2) Tolvaptan induced NDI rats were prepared and fed with doses of NDI-5033 from 0 to 100 mg/kg/day in a series of experiments. […] To confirm the effectiveness of the 25 mg/kg/day dose, NDI-5033 was given to V2R knock-out NDI mice and 24-hour urines were assessed for urine osmolality (FIG. 3B). The osmolality was increased in NDI mice after treatment with 25 mg/kg/day of NDI-5033.

For data set [1], the system named is Tolvaptan induced NDI rats. Briefly: Tolvaptan-induced NDI rat model, urine concentration. The format is in vivo. As for the experimental part:
Rats were given tolvaptan to induce NDI. Tolvaptan binds to and blocks the vasopressin type 2 receptor (V2R) and renders the animals insensitive to vasopressin-induced antidiuresis. The efficacy of three compounds of Formula I were evaluated. Each rat was gavage fed with 10 mg/kg/day of tolvaptan in the carrier solution (1% hydroxypropylmethyl cellulose in water) for 3 days to prepare the NDI model. The drugs were added to the gavage feeding solution and delivered daily for 4 days (NDI-5001, 200 mg/kg/day; NDI-5033 or NDI-5037, 50 mg/kg/day). Control rats were sham gavage fed.
as §1, §2
(§3) An experiment was designed to approximate hypoglycemia in the tolvaptan-treated rat NDI model to look for hypoglycemia. A timeline for the experiment is illustrated in FIG. 4A. The rats were given tolvaptan beginning Day negative 3. On Day zero half of the rats started to receive 25 mg/kg/day of NDI-5033. After observing an improvement in the urine concentration, the animals were exercised daily for 5 days. Food was removed from the animals and NDI-5033 was given, then 4 hours later rats were subjected to 30 minutes of treadmill running. Blood glucose measurements were taken before and after the bout of exercise. Food was restored. The process was repeated daily for 5 days. The average urine osmolality and urine volumes in the NDI rats not receiving NDI-5033 (control) or receiving 25 mg/kg/day NDI-5033 is shown in FIG. 4B. Urine osmolality was increased (p<0.05) and urine volume decreased (p<0.07) upon drug treatment. […] For each day, patterned bars are from rats not receiving NDI-5033. The leftmost bar (diagonal) is before and to the right is after exercise. The next two bars show blood glucose values for rats receiving NDI-5033. Solid black is before and solid white is after exercise.

The nature of data set [2]: Hypoglycemia evaluation on chronic dosing in exercised tolvaptan-treated NDI rats (blood glucose). It is filed as in vivo, rat. As to conditions: 25 mg/kg/day, daily for 5 days. As for the experimental part: as §3
Setting [3] is: 100 mg/kg/day for 3 days, tolvaptan NDI rats.
[4] abbreviates: food removed, 30 minutes treadmill 4 hours after dose.

In the case of `NC(=O)C1(CCCCCCCCCCCCC2(C(N)=O)CC2)CC1` [NDI-5033, 1,1′-(dodecane-1,12-diyl)bis(cyclopropane-1-carboxamide)], the “urine osmolality (in words)” value in the data set on V2R knock-out NDI mice (25 mg/kg/day, 24-hour urines, FIG. 3B) is recorded as “increased”. In addition, in the data set on V2R knock-out NDI mice (given by injection, 24-hour urine, versus control mice receiving no drug), the “improvement in urine concentration” value stood at 50%. The “average urine osmolality (in words)” value in data set [1] (25 mg/kg/day versus control NDI rats, exercise study, p<0.05, FIG. 4B) is listed as “increased”. Moreover, in data set [1] (25 mg/kg/day versus control NDI rats, exercise study, p<0.07, FIG. 4B), the “average urine volume (in words)” value was “decreased”. Further, in data set [1] (setting [3]), the “duration for which anti-diuretic response is sustained” value is on record as 3 days and the “time to anti-diuretic effect after initial treatment” value was ≤ 24 h. Moreover, the “urine concentrating ability (urine osmolality) as percent of untreated, fully concentrating rats (basal, set to 100%)” value in data set [1] (NDI-5033 50 mg/kg/day by gavage daily for 4 days, after tolvaptan 10 mg/kg/day for 3 days) was 75 % of normal. In addition, the “dose showing statistically significant improvements in urine concentrations” value in data set [1] (dose response 0 to 100 mg/kg/day, FIG. 3A) is reported as ≥ 10 mg/kg/day. Also, the “urine osmolality (in words)” value in data set [1] (dosed with NDI inducing agent tolvaptan, FIG. 2A, 100 mg/kg/day for 3 days) was “increases urine osmolality”. For the same compound, the “efficacy / urine concentrating ability (in words)” value in data set [1] (gavage daily for 4 days, NDI-5001 200 mg/kg/day, NDI-5033 or NDI-5037 50 mg/kg/day, tolvaptan NDI rats) is on record as “improve urine concentrating ability”. Also, the hypoglycemia result in data set [2] (exercised NDI rats) was “no evidence of hypoglycemia; also recorded: do not experience hypoglycemia”. Besides, in data set [2] (setting [4]), the “blood glucose before versus after exercise” value was “no statistical difference” and the “blood glucose relative to normal range for rats” value is given as “within the normal range”.
Regarding `Cc1ccccc1C(=O)Nc1ccc(C(=O)N2CCCC(O)c3cc(Cl)ccc32)c(C)c1` (centres unmarked) [tolvaptan, reference compound], in data set [1] (tolvaptan 10 mg/kg/day by gavage for 3 days, NDI induction), the “urine osmolality as percent of the normal animal” value is 10 % of the normal animal.
